Data on seven molecules can be found in article PMC9082971, “Nature-derived epoxy resins: Synthesis, allergenicity, and thermosetting properties of pinoresinol diglycidyl ether” (Toxicology and Industrial Health, 2022).

For series [1], the system named is KeratinoSens reporter keratinocytes (luciferase gene under control of the ARE element of the AKR1C2 gene). The experiment in a line: KeratinoSens ARE-Nrf2 luciferase assay. It counts as cell-based. Conditions: for ECKS1.5: extrapolated concentration for 1.5 fold luciferase induction; for ECKS4.5: extrapolated concentration for 4.5 fold luciferase induction; for Classification: KeratinoSens, luciferase induction greater than 1.5-fold at non-cytotoxic concentrations. As for the experimental part:
(§1) KeratinoSens Assay for Sensitization and Cellular Viability. The KeratinoSens™ assay was performed according to the OECD guidelines ([OECD, 2018]). Compounds were incubated at 12 concentrations (0.98–2000 μM) for 48 h with cinnamic aldehyde as the positive control. The experiment was repeated on three independent occasions.
In Vitro Skin Sensitization: KeratinoSens ARE-Nrf2 Luciferase Assay. […] ECKS1.5 represents the extrapolated concentration for which induction of luciferase activity is above the 1.5 fold threshold (i.e., 50% enhanced luciferase activity). The ECKS4.5 values were used for comparison of sensitizing potency.

The test system of the next series is model peptide AcPHCKRM. The experiment in a line: Reactivity toward the model peptide AcPHCKRM (peptide depletion, HPLC/ESI-MS). The conditions noted are these: 10 mM compound, 1 mM AcPHCKRM. As for the experimental part:
All solvents were degassed with argon prior to use. […] Monoepoxides PGE, 1 or 2 were prepared in DMSO (40 mM, 100 μL) together with potassium phosphate buffer (100 mM, pH 7.4) (200 μL) and separately added to a vial purged with argon containing AcPHCKRM dissolved in DMSO (4 mM, 100 μL).
Based on our previous studies regarding the chemical reactivity of the epoxide-containing compounds ([O’Boyle et al., 2014]; [Ponting et al., 2019]), the depletion of the nucleophilic hexapeptide Ac-Pro-His-Cys-Lys-Arg-Met-OH (AcPHCKRM) was analyzed in reaction mixtures at pH 7.4 with a 10-fold excess of the respective test chemical in a mixture of phosphate buffer and DMSO.

Series [2] is described as follows: Cellular viability (MTT) in the KeratinoSens assay. It counts as cell-based. The conditions noted are these: human, KeratinoSens reporter keratinocytes, 50% reduction in cellular viability, read-out: Cytotoxicity IC50. As for the experimental part: as §1
In series [3] the test system is KeratinoSens reporter keratinocytes. The conditions noted are these: read-out: Cytotoxicity IC50; 50% reduction in cellular viability, MTT assay; ref Delaine et al., 2011; cited from earlier work. Background: Formazan colour is commonly taken as a measure of viable cells.
The test system of series [4] is KeratinoSens reporter keratinocytes (luciferase gene under control of the ARE element of the AKR1C2 gene). Conditions: cited from earlier work.
The subject of another series is mice and guinea pigs. Conditions: cited from earlier work.
The test system of series [5] is CBA/Ca mice. Conditions: cited from earlier work.
On the set-up of series [6]: method as in O’Boyle et al., 2014. The conditions noted are these: ref O’Boyle et al., 2014, cited from earlier work.
The test system of series [7] is CBA/Ca mice. Kind of series: Murine local lymph node assay (LLNA). It counts as in vivo. As for the experimental part: (§2) Experimental Animals. Female CBA/Ca mice, 7 or 9 weeks of age, were purchased from NOVA SCB Charles River, Germany. The mice were housed in HEPA filtered airflow cages and kept on standard laboratory diet and water ad lib. The regional ethics committee, Jordbruksverket, approved the protocol and the procedure was performed in accordance with the guidelines. Sensitization Potential of PinoDGE in Mice. […] Computational Techniques. Reactivity of cysteine residues toward the compounds under investigation was modeled as reactivity toward methanethiolate. Reactivity calculations were carried out at the B3LYP-D3/6–31+G**([Stephens et al., 1994]; [Becke, 1988]; [Slater, 1974]; [Goerigk and Grimme, 2011]; [Grimme et al., 2010]; [Ditchfield et al., 1971]) level of theory in Jaguar (Schrodinger LLC, N. Y. Jaguar, version 7.6, 2009). Further experimental details are contained in the supplementary information. Cross-Linking Procedure and Thermogravimetric Analysis (TGA).
(§3) In Vivo Skin Sensitizing Potency Studies. The LLNA was used to assess the skin sensitizing potency of PinoDGE. […] The standard vehicle, acetone: olive oil (AOO) (4:1), was initially used as the vehicle. […] Pure acetone is described as a suitable vehicle in the LLNA ([Jowsey et al., 2008]); however, a closer match to AOO was desired, leading to the choice of AOO 16:1.

The nature of series [8]: Cross-linking with TETA and thermogravimetric analysis (TGA). It counts as physicochemical. On the procedure:
as §2
Cross-Linking of PinoDGE with TETA. […] Initial decomposition temperature (IDT) indicated the apparent thermal stability of the epoxy resin.

Series [9] can be described thus: Solubility in the LLNA test vehicle. The series is classed as physicochemical.
Text: as §3

The mark [10] stands for this setting: after 45 min, pH 7.4 phosphate buffer/DMSO.
The mark [11] stands for this setting: LLNA, ref Niklasson et al., 2009.
[12] abbreviates: cross-linked with TETA, TGA under nitrogen.
Where [13] appears, read: cured epoxy resin, Horwitz-Metzger equation.
The mark [14] stands for this setting: AOO 16:1, 10% w/v (0.21 M), precipitating from solution on the ears of the mice.

Read-outs that look alike come from different tables or passages of the source. Where only a bound is given, the exact number is not on record here.

In general, IC50 refers to the point on the concentration scale where inhibition reaches its midpoint. One may read the solubility as how much of the substance goes into solution per volume.

`COc1ccccc1OCC1CO1` (centres unmarked) [Compound 1, 2-((2-methoxyphenoxy)methyl)oxirane]: in series [1], the ECKS1.5 is 23 µM and the ECKS4.5 is 64 µM.

On to `O=[N+]([O-])c1ccccc1OCC1CO1` (centres unmarked) [Compound 2, 2-((2-nitrophenoxy)methyl)oxirane], for which, in the series with model peptide AcPHCKRM (after 40 min, pH 7.4), the peptide remaining is 28%. In the series on model peptide AcPHCKRM (at 200 min, pH 7.4), this molecule displayed a peptide remaining of 24%. For the same molecule, the IC50 at 48 h in [2] came to 88 µM. In series [1], the Classification entry was “Sensitizer”, the ECKS1.5 is 12 µM and the ECKS4.5 was 37 µM.

Turning to `CC(C)(c1ccc(OCC2CO2)cc1)c1ccc(OCC2CO2)cc1` (centres unmarked) [DGEBA, diglycidyl ether of bisphenol A], the half-maximal inhibitory concentration (IC50) in [3] was 22 µM. Also, in series [4], the ECKS1.5 is 5.2 µM and the ECKS4.5 was 10 µM. In the series with model peptide AcPHCKRM (setting [10]), the peptide remaining worked out at 37%. In the series on model peptide AcPHCKRM (after 85 min, pH 7.4), the peptide remaining came out at 18%. This molecule came in with a peptide remaining in the series with model peptide AcPHCKRM (after 205 min, pH 7.4) of 7%. Further, the Classification as sensitizer entry with mice and guinea pigs (mice and guinea pigs, ref Thorgeirsson et al., 1978, Delaine et al., 2011, Pontén et al., 2002, Basketter et al., 2005) is listed as “strong sensitizers”. In addition, the EC3 in the series with CBA/Ca mice [5] (setting [11]) was 0.036 M. Moreover, in series [6] (setting [12]), the “IDT (initial decomposition temperature)” value is listed as 358 ˚C, the “Rmax (maximum weight loss rate)” value was −1.58 %/˚C and the “Tmax (temperature at maximum rate of weight loss)” value is 382 ˚C. Also, the “Ea (activation energy for decomposition)” value in [6] (setting [13]) is 22.9 kcal/mol.

In the case of `c1cc(OCC2CO2)ccc1Cc1ccc(OCC2CO2)cc1` (centres unmarked) [DGEBF, diglycidyl ether of bisphenol F], in the series on mice and guinea pigs (in vivo), the Classification as sensitizer entry is reported as “strong sensitizers”.

For the molecule `CCCCCCC(C=O)=Cc1ccccc1` [HCA, hexylcinnamic aldehyde, reference compound], the EC3 was 11.8 % w/v in the series on CBA/Ca mice [7] (control experiment in AOO 16:1) and 4.4–14.7 % w/v in the series with CBA/Ca mice [5] (reported values in 4:1 AOO, ref OECD, 2010).

On to `c1ccc(OCC2CO2)cc1` (centres unmarked) [PGE, phenylglycidyl ether], for which the IC50 in series [3] is 182 µM. Moreover, the “Imax (fold induction)” value in series [4] (average maximal induction of gene activity, ref Delaine et al., 2011) is 56 fold induction. For the same molecule, the ECKS1.5 in [4] (extrapolated concentration for 1.5 fold luciferase induction, ref Delaine et al., 2011) is 16 µM. Also, in [4] (extrapolated concentration for 4.5 fold luciferase induction, ref Delaine et al., 2011), the ECKS4.5 is 63 µM. The peptide remaining with model peptide AcPHCKRM (after 40 min, pH 7.4) was determined as 35%; with model peptide AcPHCKRM (at 200 min, pH 7.4), 26%. Besides, in the series on CBA/Ca mice [5] (setting [11]), the EC3 is 0.031 M. For the same molecule, the LLNA classification entry with CBA/Ca mice [5] (ref Niklasson et al., 2009) was “strong sensitizer”.

With `COc1cc([C@H]2OC[C@H]3[C@@H]2CO[C@@H]3c2ccc(OCC3CO3)c(OC)c2)ccc1OCC1CO1` (some centres unmarked) [PinoDGE, pinoresinol diglycidyl ether], the peptide remaining with model peptide AcPHCKRM (setting [10]) worked out at 8%; with model peptide AcPHCKRM (after 85 min, pH 7.4) it was 5%. Moreover, the half-maximal inhibitory concentration (IC50) at 48 h in series [2] is 24 µM. In series [8] (Rmax as percentage of that of DGEBA), the “maximum rate of degradation (Rmax) relative to DGEBA” value was 58%. Further, the “IDT (initial decomposition temperature)” value in [8] (setting [12]) is 338 ˚C. Further, in series [8] (setting [12]), the “Rmax (maximum weight loss rate)” value is listed as −0.92 %/˚C. In addition, the “Tmax (temperature at maximum rate of weight loss)” value in series [8] (setting [12]) is listed as 370 ˚C. Further, the “Ea (activation energy for decomposition)” value in [8] (setting [13]) was determined as 30.6 kcal/mol. In addition, the “IDT lower than that of DGEBA” value in [8] (difference to DGEBA polymer) was 20 °C. Further, in series [8] (difference to DGEBA polymer), the “Tmax lower than that of DGEBA” value came to 12 °C. Besides, the Solubility in vehicle result is “up to 8 % w/v” in [9] (AOO 16:1, precipitated from a 10% w/v solution) and ≤ 5 % w/v in [9] (AOO (4:1)). Further, the solubility in series [9] (acetone:olive oil (AOO) 4:1, organic solvent or mixture, AOO (4:1)) is ≤ 110 mM; in series [9] (acetone:olive oil (AOO) 16:1, organic solvent or mixture, AOO 16:1, precipitated from a 10% w/v solution) it was ≤ 170 mM. The Classification entry in series [1] is recorded as “skin sensitizer”. For the same molecule, the ECKS1.5 in series [1] was 2.5 µM. In [1], the ECKS4.5 was 7.4 µM. In addition, the “(3H)thymidine incorporation” value is 280 dpm/lymph node in the series on CBA/Ca mice [7] (AOO 4:1, 0.10% w/v (0.0021 M)); 368 dpm/lymph node with CBA/Ca mice [7] (AOO 4:1, 1.0% w/v (0.021 M)); 166 dpm/lymph node in the series with CBA/Ca mice [7] (AOO 4:1, 2.5% w/v (0.053 M)); 325 dpm/lymph node in the series on CBA/Ca mice [7] (AOO 4:1, 3.0% w/v (0.064 M)); 327 dpm/lymph node with CBA/Ca mice [7] (AOO 4:1, 5.0% w/v (0.11 M)); 130 dpm/lymph node with CBA/Ca mice [7] (AOO 16:1, 2.0% w/v (0.043 M)). Moreover, the “(3H)thymidine incorporation” value stood at 180 dpm/lymph node with CBA/Ca mice [7] (AOO 16:1, 4.0% w/v (0.085 M)); 195 dpm/lymph node with CBA/Ca mice [7] (AOO 16:1, 6.0% w/v ([…])); 480 dpm/lymph node in the series with CBA/Ca mice [7] (AOO 16:1, 8.0% w/v (0.17 M)); 180 dpm/lymph node in the series with CBA/Ca mice [7] (setting [14]). Also, the SI in the series with CBA/Ca mice [7] (AOO 4:1, 0.10% w/v (0.0021 M)) amounted to 0.94; with CBA/Ca mice [7] (AOO 4:1, 1.0% w/v (0.021 M)), 1.23; in the series with CBA/Ca mice [7] (AOO 4:1, 2.5% w/v (0.053 M)), 0.56; with CBA/Ca mice [7] (AOO 4:1, 3.0% w/v (0.064 M)), 1.09; in the series on CBA/Ca mice [7] (AOO 4:1, 5.0% w/v (0.11 M)), 1.10; with CBA/Ca mice [7] (AOO 16:1, 2.0% w/v (0.043 M)) it was 0.52. The SI is 0.73 in the series on CBA/Ca mice [7] (AOO 16:1, 4.0% w/v (0.085 M)); 0.79 in the series with CBA/Ca mice [7] (AOO 16:1, 6.0% w/v ([…])); 1.94 in the series with CBA/Ca mice [7] (AOO 16:1, 8.0% w/v (0.17 M)); 0.73 in the series with CBA/Ca mice [7] (setting [14]); ≤ 3 with CBA/Ca mice [7] (any of the concentrations tested, both vehicles). Besides, in the series on CBA/Ca mice [7] (LLNA, AOO 4:1 and AOO 16:1), the EC3 is reported as > 0.17 M. For the same molecule, the LLNA classification result in the series on CBA/Ca mice [7] (concentrations up to 0.17 M) is recorded as “not classified as a skin sensitizer”.
